“Also recorded” adds a separate entry of the source. Ends that are not written are not given here.
Assays:
NisP = assay: Cleavage of nisin mutants by NisP in crude supernatants or purified peptide, masses by MALDI-TOF; format: biochemical, Lactococcus lactis; conditions: His-tagged purified NisP, overnight 37°C; for Aberrant cleavage / misprocessing by NisP: culture pH (4.5–5.0) or pH 6.0, MALDI-TOF
Method: Alternatively, supernatants containing nisin mutant peptides produced after induction were divided into two fractions; one in which the pH was adjusted to 6.0 and the other one where the pH was the actual fermentation pH. They were incubated overnight at 37°C with or without His-tagged purified NisP at a ratio of 1000:1. After the incubation, the supernatants were precipitated using TCA and resuspended in 1/20 volume 0.05% acetic acid. For the mutants that were produced in lower amounts, larger volumes were induced and the peptides were purified by cationic exchange chromatography as described before and separated by reverse phase chromatography using a Jupiter 4 μm Proteo 90 Å 250 × 4.6 mm C12 analytical column (Phenomenex). The column was equilibrated in 20% organic solvent (acetonitrile 0.1% TFA) before the sample injection. It was washed for 5 min before applying a linear gradient from 20 to 50% organic solvent in 20 min. 1 μl of each collected peak was used for mass-spectrometry determination.
Mass spectrometry analysis of the samples was performed by matrix-assisted laser desorption/ionization (MALDI) time-of-flight (ToF) in an ABI Voyager DE Pro (Applied Biosystems) operating in linear mode as previously described using external calibration (van Heel et al., [2013]). Briefly, 1 μl sample was spotted, dried and washed with 5 μL Milli-Q water, on the target. Next, 1 μl of α-cyano-4-hydroxycinnamic acid 5 mg/ml (Sigma-Aldrich) was spotted on the sample.
We designed a set of nisin mutants to investigate the specificity of NisP (Figure 4). For all these mutants, supernatants were collected after induction and divided into three fractions. NisP was added to two of these fractions, one maintaining the pH of the culture (4.5–5.0) and the other fraction was adjusted to pH 6.0. The third fraction was used as an untreated control. After cleavage, the masses of the peptides were monitored by MALDI-TOF (Table 2).

[1] = test system: L. lactis NZ9000 (pNZnisP-8H); assay: Antimicrobial activity of purified prelantibiotics against NisP producing sensor strain; format: cell-based, Lactococcus lactis; conditions: compared to the plasmid free strain, data not shown
Method: (§1) Activity tests were performed by well-diffusion assay as indicated by van Heel et al. ([2013]). L. lactis NZ9000 transformed with the appropriate plasmids or Micrococcus flavus were used as sensor strains as specified in each figure. The cleavage of nisin by NisP after SDS-PAGE was monitored washing the gel according to Bhunia et al. ([1987]) and covering with an overlay of GM17 soft agar inoculated with NZ9000 (pIL3BTC pNZnisA-E3) induced with 1 ng/ml nisin. The overlay was incubated for 16 h, after which the presence of inhibition zones was evaluated.
The substrate tolerance of soluble NisP was tested using a set of different lantibiotics. These were produced using the nisin modification machinery encoded in NZ9000 (pIL3BTC pNZE3-mutant) and purified by cationic exchange chromatography. For this purpose, NZ9000 (pNZ-nisP-8H) was used as a sensor strain and tested using gallidermin (van Heel et al., [2013]) and two lantibiotics detected in the genome of Streptococcus pneumoniae, PneA1 and PneA2 encoded in the genes spr1765 and spr1766, respectively, which were heterologously expressed in L. lactis fused to the nisin leader peptide (Majchrzykiewicz et al., [2010]) (Figure 5). […] The activity was restored when a strain producing soluble NisP was employed.
Figure 5 Antimicrobial activity of purified modified lantibiotics gallidermin, 1215 and 1268 against L. lactis NZ9000 (pNZnisP-8H). […]

[2] = test system: L. lactis NZ9000 (pIL253 pNZ8048); assay: Activity of the proteases in crude supernatants, antimicrobial assay against L. lactis; format: cell-based, Lactococcus lactis; conditions: 1 μl protease with 50 μl supernatant containing its corresponding prenisin variant
Method: as §1
To further compare the versatility of NisP in culture conditions with various proteases frequently used in biotechnology, we mutated the last four amino acids in the leader peptide (P4-P1) of nisin (i.e., ASPR) to insert a factor Xa (IEGR) or a thrombin (AVPR) cleavage site. We also mutated the arginine in position P1 of the leader peptide into glutamic acid, creating a cleavage site for the endoprotease Glu-C. Additionally, the proposed self-cleavage sequence of NisP (VSLR) (Figure 1, van der Meer et al., [1993]) was used to replace the ASPR sequence at the end of the nisin leader peptide. […] The cleavage was evaluated by activity against NZ9000 (pIL253 pNZ8048), which is resistant to the erythromycin and chloramphenicol present in the supernatants of the substrate producer strains but sensitive to nisin. […]

Micrococcus flavus = assay: Activation of prenisin with supernatants containing NisP variants, antimicrobial assay; format: cell-based; conditions: supernatants after 3 h induction; in the first test 5 μl with 50 μl prenisin
Method: as §1
The supernatants of the strains NZ9000 (pNZnisPsl-8H) and NZ9000 (pNZnisPsl-8K) were tested for the presence of protease activity after 3 h of induction with nisin. In each case, 5 μl of the supernatant was mixed with 50 μl of prenisin obtained by TCA precipitation of induced NZ9000 (pIL3BTC pNZnisA-E3). […]
In a second approach, we attempted to reduce the size of NisP, while keeping the active subtilisin-like domain intact. […] Additionally, the size of the inhibition halo measured is larger in the samples activated with the soluble protease present in the supernatants of these three engineered strains compared to the samples activated with the supernatant of L. lactis NZ9000 (pNGnisTP), which produces as a major product wild-type cell-anchored NisP.

nisin I1D: Nisin I1D mutant (MSTKDFNLDLVSVSKKDSGASPRDTSISLCTPGCKTGALMGCNMKTATCHCSIHVSK; ends and bridges not checked; cysteine pairing not given here; UniProt P13068 1-57, looked up, variant I1D)
Cleavage by NisP (NisP; ratio 1000:1, culture pH (4.5–5.0) or pH 6.0, MALDI-TOF): a small fraction of uncleaved peptide after the incubation of the mutant nisin I1D with the protease, which indicates reduced cleavage efficiency

nisin I1K: Nisin I1K mutant (MSTKDFNLDLVSVSKKDSGASPRKTSISLCTPGCKTGALMGCNMKTATCHCSIHVSK; ends and bridges not checked; cysteine pairing not given here; UniProt P13068 1-57, looked up, variant I1K)
Aberrant cleavage / misprocessing by NisP (NisP): a small fraction of mature nisin with a mass difference consistent with the presence of Arg P1 in the mature peptide | Aberrant cleavage / misprocessing by NisP (NisP; listed as I1K): a small additional peak detected by mass-spectrometry consistent with a cleavage between positions P2 and P1

nisin-C7A: Nisin C7A mutant, lacking the first ring (MSTKDFNLDLVSVSKKDSGASPRITSISLATPGCKTGALMGCNMKTATCHCSIHVSK; not fully specified; cysteine pairing not given here; UniProt P13068 1-57, looked up, variant C7A)
Aberrant cleavage / misprocessing by NisP (NisP): small peaks corresponding to peptides cleaved at abnormal P1 or P2 positions in the leader peptide; also recorded: a small fraction of nisin lacking the first amino acid(s)

nisin-ringA-less: Nisin (T2V S3A S5A C7A) mutant (MSTKDFNLDLVSVSKKDSGASPRIVAIALATPGCKTGALMGCNMKTATCHCSIHVSK; not fully specified; cysteine pairing not given here; UniProt P13068 1-57, looked up, variant T2V S3A S5A C7A)
Aberrant cleavage / misprocessing by NisP (NisP): small peaks corresponding to peptides cleaved at abnormal P1 or P2 positions in the leader peptide; also recorded: a small fraction of nisin lacking the first amino acid(s)

nisin: mature model lantibiotic (ITSISLCTPGCKTGALMGCNMKTATCHCSIHVSK; Lantibiotic nisin-A; UniProt P13068 24-57, looked up)
Sensitivity of the NisP producing strain to nisin [1]: increased sensitivity

thrombin
Activity of the protease in culture conditions (release of active nisin) [2]: active; also recorded: able to cleave in culture conditions

trypsin
Activity of the protease in culture conditions (release of active nisin) [2]: able to cleave in culture conditions | Protease activity (antimicrobial activity after activation of prenisin) (Micrococcus flavus): antimicrobial activity only in the positive controls

B1: NZ9000 (pNGnisTP): strain producing as a major product wild-type cell-anchored NisP (protein, UniProt Q07596 1-682, looked up)
chain: MKKILGFLFIVCSLGLSATVHGETTNSQQLLSNNINTELINHNSNAILSSTEGSTTDSINLGAQSPAVKSTTRTELDVTGAAKTLLQTSAVQKEMKVSLQETQVSSEFSKRDSVTNKEAVPVSKDELLEQSEVVVSTSSIQKNKILDNKKKRANFVTSSPLIKEKPSNSKDASGVIDNSASPLSYRKAKEVVSLRQPLKNQKVEAQPLLISNSSEKKASVYTNSHDFWDYQWDMKYVTNNGESYALYQPSKKISVGIIDSGIMEEHPDLSNSLGNYFKNLVPKGGFDNEEPDETGNPSDIVDKMGHGTEVAGQITANGNILGVAPGITVNIYRVFGENLSKSEWVARAIRRAADDGNKVINISAGQYLMISGSYDDGTNDYQEYLNYKSAINYATAKGSIVVAALGNDSLNIQDNQTMINFLKRFRSIKVPGKVVDAPSVFEDVIAVGGIDGYGNISDFSNIGADAIYAPAGTTANFKKYGQDKFVSQGYYLKDWLFTTANTGWYQYVYGNSFATPKVSGALALVVDKYGIKNPNQLKRFLLMNSPEVNGNRVLNIVDLLNGKNKAFSLDTDKGQDDAINHKSMENLKESRDTMKQEQDKEIQRNTNNNFSIKNDFHNISKEVISVDYNINQKMANNRNSRGAVSVRSQEILPVTGDGEDFLPALGIVCISILGILKRKTKN
modifications: full-length
notes: strain producing as a major product wild-type cell-anchored NisP
Protease activity (antimicrobial activity after activation of prenisin) (Micrococcus flavus): antimicrobial activity only in the positive controls
